# Laboratory results taken from US20260200939A1, “MOLECULAR GLUE DEGRADER COMPOUNDS AND USES THEREOF” (Novartis AG, priority 2022, published 2026).
# Experiments:
# [1] = target: T1, pure RNF126 protein (Homo sapiens, UniProt Q9BV68); assay: Mass spectrometry analysis of compound-labeled RNF126 tryptic digests; assay type: binding
# T1 construct: FLAG (C); host or cells: HEK293T
# [2] = target: T2, cysteine 32 (C32) on the RING-family E3 ubiquitin ligase RNF126 (Homo sapiens, UniProt Q9BV68); assay: isoTOP-ABPP chemoproteomic profiling in C33A cells; assay type: cell-based; conditions: C33A cells treated in situ
# T2 construct: endogenous in cells; host or cells: C33A
# Experimental: IsoTOP-ABPP studies were done as previously reported (Weerapana, E. et al. Nature 468, 790-795 (2010); Spradlin, J. N. et al. Nat. Chem. Biol. 15, 747-755 (2019); Grossman, E. A. et al. Cell Chem. Biol. 24, 1368-1376.e4 (2017)). All of the isoTOP-ABPP datasets were prepared as described below using the IA-alkyne probe. Cells were lysed by probe sonication in PBS and protein concentrations were measured by BCA assay. Cells were treated for 2 h with either DMSO vehicle or compound before cell collection and lysis. Proteomes were subsequently labeled with IA-alkyne labeling (200 μM) for 1 h at room temperature. CuAAC was used by sequential addition of tris(2-carboxyethyl)phosphine (1 mM, Strem, 15-7400), tris[(1-benzyl-1H-1,2,3-triazol-4-yl)methyl]amine (34 μM, Sigma, 678937), copper(II) sulfate (1 mM, Sigma, 451657) and biotin-linker-azide—the linker functionalized with a tobacco etch virus (TEV) protease recognition sequence as well as an isotopically light or heavy valine for treatment of control or treated proteome, respectively. After CuAAC, proteomes were precipitated by centrifugation at 6,500 g, washed in ice-cold methanol, combined in a 1:1 control:treated ratio, washed again, then denatured and resolubilized by heating in 1.2% SDS-PBS to 90° C. for 5 min. Insoluble components were precipitated by centrifugation at 6,500 g and soluble proteome was diluted in 5 ml 0.2% SDS-PBS. […]
# [3] = target: T3, Recombinant RNF126 (Homo sapiens, UniProt Q9BV68); assay: RNF126 Binding Assay, gel-based ABPP
# T3 construct: FLAG (C); host or cells: HEK293T
# Method in brief: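 FLAG-tagged human RNF126, expressed in HEK293T and purified on anti-FLAG resin, was pretreated with DMSO or covalent ligand for 30 min at 37 °C in PBS. IA-rhodamine was then added for 1 h at RT in the dark. Probe labelling was read by SDS-PAGE in-gel fluorescence.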
# [4] = target: T4, CDK4 (Homo sapiens, UniProt P11802); assay: RNF126 knockdown study of CDK4 degradation in C33A cells; assay type: cell-based
# T4 construct: endogenous in cells; host or cells: C33A
# Experimental: Proteins were resolved by SDS/PAGE and transferred to nitrocellulose membranes using the Trans-Blot Turbo transfer system (Bio-Rad). Membranes were blocked with 5% BSA in Tris-buffered saline containing Tween 20 (TBS-T) solution for 30 min at RT, washed in TBS-T, and probed with primary antibody diluted in recommended diluent per manufacturer overnight at 4° C. After 3 washes with TBS-T, the membranes were incubated in the dark with IR680- or IR800-conjugated secondary antibodies at 1:10,000 dilution in 5% BSA in TBS-T at RT for 1 h. After 3 additional washes with TBST, blots were visualized using an Odyssey Li-Cor fluorescent scanner. The membranes were stripped using ReBlot Plus Strong Antibody Stripping Solution (EMD Millipore) when additional primary antibody incubations were performed. Antibodies used in this study were CDK4 (Abcam ab108357), Vinculin (Abcam ab129002), GAPDH (Cell Signaling Technology 14C10), RNF126 (Santa Cruz Biotechnology sc-376005), BRD4 (Abcam ab128874), Beta Actin (Cell Signaling Technology 13E5), PDE5 (Abcam ab259945), AR-V7 (Abcam ab273500), c-Abl (Santa Cruz Biotechnology sc-23), SMARCA2 (Abcam ab240648), LRRK2 (Abcam ab133474), BTK (Cell Signaling Technology D3H5), Androgen Receptor (Abcam ab133273).
# Short-hairpin oligonucleotides were used to knock down the expression of RNF126 in C33A cells. […]
# [5] = target: T5, c-ABL kinase (Homo sapiens, UniProt P00519); assay: c-ABL degradation, Western blotting; assay type: cell-based
# T5 construct: endogenous in cells; host or cells: K562 (inferred)
# Experimental: (§1) C33A cells were purchased from American Type Culture Collection (ATCC) and were cultured in Dulbecco's Modified Eagle Medium (DMEM) containing 10% (v/v) fetal bovine serum (FBS) and maintained at 37° C. with 5% CO2. 22RV1 cells were purchased from the ATCC and were cultured in RPMI-1640 Medium containing 10% (v/v) FBS and maintained at 37° C. with 5% CO2. HEK293T cells were obtained from the UC Berkeley Cell Culture Facility and were cultured in DMEM containing 10% (v/v) FBS and maintained at 37° C. with 5% CO2. K562 cells were obtained from the UC Berkeley Cell Culture Facility and were cultured in Iscove's Modified Dulbecco's Medium (IMDM) containing 10% (v/v) FBS and maintained at 37° C. with 5% CO2. MV-4-11 cells were obtained from the ATCC and were cultured in IMDM containing 10% (v/v) FBS and maintained at 37° C. with 5% CO2. A549 cells were obtained from the ATCC and were cultured in F-12K Medium containing 10% (v/v) FBS and maintained at 37° C. with 5% CO2. Mino cells were obtained from the ATCC and were cultured in RPMI-1640 Medium containing 10% (v/v) FBS and maintained at 37° C. with 5% CO2. […]
# (§2) Cells were washed twice with cold PBS, scraped, and pelleted by centrifugation (700 g, 5 min, 4° C.). […] Proteome concentrations were determined using BCA assay and lysate was diluted to appropriate working concentrations. […]
# [6] = target: T6, BCR-ABL (Homo sapiens, UniProt P00519); assay: BCR-ABL degradation, Western blotting; assay type: cell-based
# T6 construct: BCR (N-terminal part of P11274, natural fusion partner); endogenous in cells; host or cells: K562 (inferred); the other entry of the earlier key: BCR (P11274, Breakpoint cluster region protein)
# Experimental: as §1, §2
# [7] = target: T7, PDE5 (Homo sapiens, UniProt O76074); assay: PDE5 degradation in HEK293T cells, Western blotting; assay type: cell-based
# T7 construct: endogenous in cells; host or cells: HEK293T
# Experimental: as §1, §2
# [8] = target: T8, LRRK2 (Homo sapiens, UniProt Q5S007); assay: LRRK2 loss in A549 lung cancer cells, Western blotting; assay type: cell-based
# T8 construct: endogenous in cells; host or cells: A549
# Experimental: as §1, §2
# T3 sequence (Q9BV68 whole entry): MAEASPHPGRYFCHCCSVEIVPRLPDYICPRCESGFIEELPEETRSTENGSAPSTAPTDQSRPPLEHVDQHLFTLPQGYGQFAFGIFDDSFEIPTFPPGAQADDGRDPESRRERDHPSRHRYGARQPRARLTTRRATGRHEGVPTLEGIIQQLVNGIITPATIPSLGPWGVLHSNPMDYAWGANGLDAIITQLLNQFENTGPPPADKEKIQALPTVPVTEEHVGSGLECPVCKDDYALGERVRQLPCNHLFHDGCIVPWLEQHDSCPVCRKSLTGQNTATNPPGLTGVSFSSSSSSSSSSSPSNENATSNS
# T5 sequence (P00519 whole entry): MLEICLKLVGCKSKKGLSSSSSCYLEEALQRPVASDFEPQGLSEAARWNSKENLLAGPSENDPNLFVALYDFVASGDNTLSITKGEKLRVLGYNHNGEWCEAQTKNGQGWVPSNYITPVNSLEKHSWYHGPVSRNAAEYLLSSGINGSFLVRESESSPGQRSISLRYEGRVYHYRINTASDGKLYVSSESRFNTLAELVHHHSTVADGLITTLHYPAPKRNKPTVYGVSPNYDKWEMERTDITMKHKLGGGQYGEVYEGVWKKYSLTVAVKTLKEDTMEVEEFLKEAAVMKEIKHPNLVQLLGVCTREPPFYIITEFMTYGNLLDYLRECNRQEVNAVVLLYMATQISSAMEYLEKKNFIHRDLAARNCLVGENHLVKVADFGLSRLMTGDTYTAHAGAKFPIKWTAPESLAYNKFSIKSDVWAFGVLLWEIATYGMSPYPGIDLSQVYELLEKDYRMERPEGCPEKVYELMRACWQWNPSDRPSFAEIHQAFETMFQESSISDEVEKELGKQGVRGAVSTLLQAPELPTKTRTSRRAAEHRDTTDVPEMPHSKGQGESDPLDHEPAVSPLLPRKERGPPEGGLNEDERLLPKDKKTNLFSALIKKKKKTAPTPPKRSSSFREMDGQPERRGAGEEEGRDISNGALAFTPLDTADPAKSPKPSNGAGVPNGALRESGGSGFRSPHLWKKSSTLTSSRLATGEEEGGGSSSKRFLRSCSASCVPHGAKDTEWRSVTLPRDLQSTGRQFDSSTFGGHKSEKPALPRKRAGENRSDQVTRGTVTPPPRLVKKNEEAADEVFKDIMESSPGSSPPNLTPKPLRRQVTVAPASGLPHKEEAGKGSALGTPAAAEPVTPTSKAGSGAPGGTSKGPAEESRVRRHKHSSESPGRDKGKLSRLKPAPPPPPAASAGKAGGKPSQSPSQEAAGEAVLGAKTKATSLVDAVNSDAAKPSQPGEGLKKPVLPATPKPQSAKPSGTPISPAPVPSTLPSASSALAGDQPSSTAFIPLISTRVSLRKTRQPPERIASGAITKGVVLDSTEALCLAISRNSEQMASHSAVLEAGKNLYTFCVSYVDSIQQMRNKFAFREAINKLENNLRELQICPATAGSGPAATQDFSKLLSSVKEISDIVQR
# T6 sequence (P00519 with tags, fused parts or gaps): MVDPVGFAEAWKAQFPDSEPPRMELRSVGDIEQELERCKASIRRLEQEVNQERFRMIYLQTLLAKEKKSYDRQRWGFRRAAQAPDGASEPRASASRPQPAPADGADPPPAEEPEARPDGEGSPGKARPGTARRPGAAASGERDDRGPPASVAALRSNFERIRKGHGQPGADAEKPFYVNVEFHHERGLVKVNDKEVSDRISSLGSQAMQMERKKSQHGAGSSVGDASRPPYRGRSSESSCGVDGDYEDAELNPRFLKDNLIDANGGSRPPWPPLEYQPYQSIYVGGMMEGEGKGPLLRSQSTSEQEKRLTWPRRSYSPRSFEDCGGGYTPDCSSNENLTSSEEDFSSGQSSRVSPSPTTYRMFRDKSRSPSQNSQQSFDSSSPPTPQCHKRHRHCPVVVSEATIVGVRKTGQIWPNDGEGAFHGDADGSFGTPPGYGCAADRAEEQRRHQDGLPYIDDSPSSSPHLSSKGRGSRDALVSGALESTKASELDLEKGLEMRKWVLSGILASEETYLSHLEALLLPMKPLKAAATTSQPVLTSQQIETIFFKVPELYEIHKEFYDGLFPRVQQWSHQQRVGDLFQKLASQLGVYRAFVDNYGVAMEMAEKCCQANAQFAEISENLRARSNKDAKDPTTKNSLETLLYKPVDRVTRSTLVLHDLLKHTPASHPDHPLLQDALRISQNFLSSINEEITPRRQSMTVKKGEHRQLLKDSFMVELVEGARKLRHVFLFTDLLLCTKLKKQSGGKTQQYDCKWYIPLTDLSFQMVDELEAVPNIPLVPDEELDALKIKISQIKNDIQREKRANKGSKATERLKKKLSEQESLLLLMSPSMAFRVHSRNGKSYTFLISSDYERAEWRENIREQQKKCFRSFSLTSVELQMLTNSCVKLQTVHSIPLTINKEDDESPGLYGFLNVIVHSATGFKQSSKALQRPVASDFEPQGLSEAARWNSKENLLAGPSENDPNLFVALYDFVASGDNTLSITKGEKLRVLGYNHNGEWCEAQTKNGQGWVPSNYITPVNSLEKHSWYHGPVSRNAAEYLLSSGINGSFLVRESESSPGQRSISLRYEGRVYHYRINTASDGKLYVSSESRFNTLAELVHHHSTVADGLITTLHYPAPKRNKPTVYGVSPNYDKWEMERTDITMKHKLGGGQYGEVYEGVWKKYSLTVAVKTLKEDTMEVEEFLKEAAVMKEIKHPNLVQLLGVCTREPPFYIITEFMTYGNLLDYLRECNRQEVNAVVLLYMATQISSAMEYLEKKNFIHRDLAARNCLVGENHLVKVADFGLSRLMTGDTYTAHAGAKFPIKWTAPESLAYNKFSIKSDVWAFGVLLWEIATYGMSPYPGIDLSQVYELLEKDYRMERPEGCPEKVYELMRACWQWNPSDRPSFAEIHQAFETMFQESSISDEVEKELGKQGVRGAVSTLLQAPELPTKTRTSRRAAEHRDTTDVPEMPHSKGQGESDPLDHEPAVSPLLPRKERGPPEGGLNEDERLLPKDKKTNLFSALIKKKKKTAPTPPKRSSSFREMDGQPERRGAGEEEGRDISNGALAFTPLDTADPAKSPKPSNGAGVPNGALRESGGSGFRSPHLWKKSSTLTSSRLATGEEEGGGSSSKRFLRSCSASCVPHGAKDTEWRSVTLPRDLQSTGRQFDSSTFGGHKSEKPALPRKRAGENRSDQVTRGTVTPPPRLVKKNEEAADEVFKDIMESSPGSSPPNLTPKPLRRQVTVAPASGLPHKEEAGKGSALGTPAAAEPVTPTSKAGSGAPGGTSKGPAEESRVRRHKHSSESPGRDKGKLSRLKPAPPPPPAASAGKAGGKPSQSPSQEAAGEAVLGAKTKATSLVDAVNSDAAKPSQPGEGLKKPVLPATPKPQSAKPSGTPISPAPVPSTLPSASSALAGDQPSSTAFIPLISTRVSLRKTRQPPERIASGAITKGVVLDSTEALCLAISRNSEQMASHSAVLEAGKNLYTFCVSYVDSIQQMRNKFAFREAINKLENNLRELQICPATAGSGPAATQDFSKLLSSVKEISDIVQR
# T1 sequence (Q9BV68 whole entry): as the sequence (Q9BV68 whole entry) above
smiles,measurement,setting,value
CN(C)C(=O)c1cc2cnc(Nc3ccc(N4CCN(C(=O)/C=C/c5ccc(C(F)(F)F)cc5)CC4)cn3)nc2n1C1CCCC1 [Compound 106],adduct on RNF126 by mass spectrometry of tryptic digests,[1],mass adduct of Compound 106 on pure RNF126 protein is observed
same,cysteine engaged across the proteome (isoTOP-ABPP),[2],covalently binds to cysteine 32 (C32)
same,"binding to RNF126 (gel-based ABPP), in words",[3],confirms the interaction of Compound 106 with RNF126
same,effect of RNF126 knockdown on compound-mediated CDK4 degradation,[4],completely attenuated
COc1ccc(C(=O)/C=C/C(=O)N2CCN(c3cc(Nc4ncc(C(=O)Nc5c(C)cccc5Cl)s4)nc(C)n3)CC2)cc1 [Compound 126],"degradation of c-ABL kinase, in words",[5],degradation of both BCR-ABL and c-ABL kinase in a dose-responsive manner
same,"degradation of BCR-ABL, in words",[6],degradation of both BCR-ABL and c-ABL kinase in a dose-responsive manner
same,"binding to RNF126 (gel-based ABPP), in words",[3],potent binding
CCCc1nn(C)c2c(=O)[nH]c(-c3cc(S(=O)(=O)N4CCN(C(=O)/C=C/C(=O)c5ccc(OC)cc5)CC4)ccc3OCC)nc12 [Compound 127],"binding to RNF126 (gel-based ABPP), in words",[3],potent binding
same,"degradation of PDE5, in words",[7],degradation of PDE5 in HEK293T cells in a dose-responsive and proteasome-dependent manner
CNc1nc(Nc2ccc(C(=O)N3CCN(C(=O)/C=C/C(=O)c4ccc(OC)cc4)CC3)cc2OC)ncc1Cl [Compound 129],"loss of LRRK2, in words",[8],loss of LRRK2 in A549 lung cancer cells in a dose-responsive manner
same,"binding to RNF126 (gel-based ABPP), in words",[3],potent binding
